Source: ChEMBL document CHEMBL1137975, “DNA binding ligands with in vivo efficacy in murine models of bacterial infection: optimization of internal aromatic amino acids” (2004)
Converted amounts (≈) assume the structure as drawn.

Legend:
Enterococcus faecalis = assay: Minimum inhibitory concentration in mice against antimicrobial activity in vancomycin-sensitive Enterococcus faecalis (VSEF 29212).
Staphylococcus aureus = assay: Minimum inhibitory concentration in mice against antimicrobial activity in methicillin-resistant Staphylococcus aureus(MRSA 27660).; assay type: functional
[1] = Minimum inhibitory concentration in mice against antimicrobial activity in […] (PISP 49619).; assay type: functional; details: Streptococcus pneumoniae
Mus musculus [2] = species: Mus musculus; assay: Minimum inhibitory concentration was evaluated in mice against antimicrobial activity in […] (PISP 49619); 0.5-2; assay type: functional
Mus musculus [3] = species: Mus musculus; assay: Minimum inhibitory concentration was evaluated in mice against antimicrobial activity in […] Enterococcus faecalis (VSEF 29212); 2-8; assay type: functional
Mus musculus [4] = species: Mus musculus; assay: Minimum inhibitory concentration was evaluated in mice against antimicrobial activity in […] (PISP 49619); 1-32; assay type: functional
Mus musculus [5] = species: Mus musculus; assay: Minimum inhibitory concentration was evaluated in mice against antimicrobial activity in […] Enterococcus faecalis (VSEF 29212); 0.13-1; assay type: functional
Mus musculus [6] = species: Mus musculus; assay: Minimum inhibitory concentration was evaluated in mice against antimicrobial activity in […] (PISP 49619); 0.03-0.13; assay type: functional
Mus musculus [7] = species: Mus musculus; assay: Minimum inhibitory concentration was evaluated in mice against antimicrobial activity in methicillin-resistant Staphylococcus aureus(MRSA 27660); 1-2; assay type: functional
Mus musculus [8] = species: Mus musculus; assay: Minimum inhibitory concentration was evaluated in mice against antimicrobial activity in […] (PISP 49619); 0.5-1; assay type: functional
Mus musculus [9] = species: Mus musculus; assay: Minimum inhibitory concentration was evaluated in mice against antimicrobial activity in methicillin-resistant Staphylococcus aureus(MRSA 27660); 0.06-0.13; assay type: functional
Mus musculus [10] = species: Mus musculus; assay: Minimum inhibitory concentration was evaluated in mice against antimicrobial activity in […] (PISP 49619); 0.03-0.06; assay type: functional
Mus musculus [11] = species: Mus musculus; assay: Minimum inhibitory concentration was evaluated in mice against antimicrobial activity in […] (PISP 49619); 0.13-0.25; assay type: functional

SMILES | MIC (Enterococcus faecalis) | MIC (Staphylococcus aureus) | MIC [1] | other results
Cn1cc(NC(=O)c2cc(NC(=O)c3cc(NC(=O)c4sccc4Cl)c[nH]3)cn2C)cc1C(=O)NCCN1CCOCC1 | 2 µg/mL (≈ 3.19 µM) | 8 µg/mL (≈ 12.8 µM) | 2 µg/mL (≈ 3.19 µM) | 
Cn1cc(NC(=O)c2cc(NC(=O)c3cc(NC(=O)c4sccc4Cl)cn3C)c[nH]2)cc1C(=O)NCCN1CCOCC1 |  | 8 µg/mL (≈ 12.8 µM) |  | MIC (Mus musculus [2]): 2 µg/mL (≈ 3.19 µM); MIC (Mus musculus [3]): 8 µg/mL (≈ 12.8 µM)
Cn1cc(NC(=O)c2cc(NC(=O)c3nc(NC(=O)c4cc5ccccc5cn4)cn3C)cn2C)cc1C(=O)NCCN1CCOCC1 | 1 µg/mL (≈ 1.53 µM) | 1 µg/mL (≈ 1.53 µM) | 0.25 µg/mL (≈ 0.383 µM) | 
Cn1cc(NC(=O)c2ccc(NC(=O)c3cc(NC(=O)c4nccc5ccccc45)cn3C)cc2)cc1C(=O)NCCN1CCOCC1 | 2 µg/mL (≈ 3.08 µM) | 1 µg/mL (≈ 1.54 µM) | 0.25 µg/mL (≈ 0.385 µM) | 
Cn1cc(NC(=O)c2ccc(NC(=O)c3cc(NC(=O)c4sc5ccccc5c4Cl)cn3C)cc2)cc1C(=O)NCCN1CCOCC1 | 16 µg/mL (≈ 23.2 µM) | > 32 µg/mL | 0.25 µg/mL (≈ 0.363 µM) | 
Cn1cc(NC(=O)c2ccc(NC(=O)c3cc(NC(=O)c4ccncn4)cn3C)cc2)cc1C(=O)NCCN1CCOCC1 | 32 µg/mL (≈ 53.4 µM) | > 32 µg/mL | 0.5 µg/mL (≈ 0.834 µM) | 
CC(C)n1cc(NC(=O)c2cc(NC(=O)c3cc(NC(=O)c4sccc4Cl)cn3C)cn2C)cc1C(=O)NCCN1CCOCC1 | 1 µg/mL (≈ 1.49 µM) | 1 µg/mL (≈ 1.49 µM) | 0.25 µg/mL (≈ 0.374 µM) | 
Cn1cc(NC(=O)c2cc(NC(=O)c3cc(NC(=O)c4sccc4Cl)cn3C)nn2C)cc1C(=O)NCCN1CCOCC1 | > 32 µg/mL | 32 µg/mL (≈ 49.8 µM) |  | MIC (Mus musculus [4]): 32 µg/mL (≈ 49.8 µM)
Cn1cc(NC(=O)c2cc(NC(=O)c3nc(NC(=O)c4sccc4Cl)cn3C)cn2C)cc1C(=O)NCCN1CCOCC1 |  |  |  | MIC (Mus musculus [5]): 1 µg/mL (≈ 1.56 µM); MIC (Mus musculus [6]): 0.13 µg/mL (≈ 0.202 µM)
Cn1cc(NC(=O)c2cc(NC(=O)c3cccc(NC(=O)c4sccc4Cl)c3)cn2C)cc1C(=O)NCCN1CCOCC1 | > 32 µg/mL | > 32 µg/mL | > 32 µg/mL | 
Cn1cc(NC(=O)c2ccc(NC(=O)c3cc(NC(=O)c4sccc4Cl)cn3C)cc2)cc1C(=O)NCCN1CCOCC1 | 2 µg/mL (≈ 3.13 µM) | 8 µg/mL (≈ 12.5 µM) | 1 µg/mL (≈ 1.57 µM) | 
Cn1cc(NC(=O)c2sccc2Cl)cc1C(=O)Nc1cc(C(=O)Nc2cn(C)c(C(=O)NCCN3CCOCC3)n2)n(C)c1 | > 32 µg/mL | > 32 µg/mL | > 32 µg/mL | 
Cn1cc(NC(=O)c2cc(NC(=O)c3cc(NC(=O)c4cc5ccccc5cn4)cn3C)cs2)cc1C(=O)NCCN1CCOCC1 | > 32 µg/mL | 8 µg/mL (≈ 12.2 µM) | 0.5 µg/mL (≈ 0.764 µM) | 
Cn1cc(NC(=O)c2ccc(NC(=O)c3cc(NC(=O)c4ccc(F)cc4F)cn3C)cc2)cc1C(=O)NCCN1CCOCC1 | 8 µg/mL (≈ 12.6 µM) | 32 µg/mL (≈ 50.5 µM) | 0.5 µg/mL (≈ 0.789 µM) | 
Cn1cc(NC(=O)c2cc(NC(=O)c3cc(NC(=O)c4cc5ccccc5cn4)nn3C)cn2C)cc1C(=O)NCCN1CCOCC1 | 8 µg/mL (≈ 12.3 µM) | 1 µg/mL (≈ 1.53 µM) | 0.5 µg/mL (≈ 0.766 µM) | 
Cn1cc(NC(=O)c2ccc(NC(=O)c3cc(NC(=O)c4ccccn4)cn3C)cc2)cc1C(=O)NCCN1CCOCC1 | > 32 µg/mL | > 32 µg/mL | 0.5 µg/mL (≈ 0.835 µM) | 
Cn1cc(NC(=O)c2sccc2Cl)cc1C(=O)Nc1cc(C(=O)Nc2c[nH]c(C(=O)NCCN3CCOCC3)c2)n(C)c1 | 32 µg/mL (≈ 51 µM) | 16 µg/mL (≈ 25.5 µM) | 8 µg/mL (≈ 12.8 µM) | 
Cn1cc(NC(=O)c2ccc(NC(=O)c3cc(NC(=O)c4cc5cc6c(cc5cn4)OCO6)cn3C)cc2)cc1C(=O)NCCN1CCOCC1 | 0.5 µg/mL (≈ 0.722 µM) | 0.06 µg/mL (≈ 0.0866 µM) | 0.5 µg/mL (≈ 0.722 µM) | 
Cn1cc(NC(=O)c2sccc2Cl)cc1C(=O)Nc1cc(C(=O)Nc2cccc(C(=O)NCCN3CCOCC3)c2)n(C)c1 | 16 µg/mL (≈ 25.1 µM) | 16 µg/mL (≈ 25.1 µM) | 8 µg/mL (≈ 12.5 µM) | 
CC(C)n1cc(NC(=O)c2cc(NC(=O)c3sccc3Cl)cn2C)cc1C(=O)Nc1cc(C(=O)NCCN2CCOCC2)n(C)c1 | 1 µg/mL (≈ 1.49 µM) | 1 µg/mL (≈ 1.49 µM) | 0.5 µg/mL (≈ 0.747 µM) | 

SMILES | MIC (Enterococcus faecalis) | MIC (Staphylococcus aureus) | MIC [1] | other results
Cn1cc(NC(=O)c2cc(NC(=O)CCNC(=O)c3cc4ccccc4cn3)cn2C)cc1C(=O)NCCN1CCOCC1 | 16 µg/mL (≈ 26.6 µM) | 32 µg/mL (≈ 53.3 µM) | 8 µg/mL (≈ 13.3 µM) | 
Cn1cc(NC(=O)c2cc(NC(=O)c3cc(NC(=O)c4sccc4Cl)nn3C)cn2C)cc1C(=O)NCCN1CCOCC1 | 8 µg/mL (≈ 12.5 µM) | 8 µg/mL (≈ 12.5 µM) | 0.25 µg/mL (≈ 0.389 µM) | 
CC(=O)NCC1CN(c2ccc(N3CCOCC3)c(F)c2)C(=O)O1 (single isomer, unassigned) [LINEZOLID] |  |  | 1 µg/mL (≈ 2.96 µM) | 
Cn1cc(NC(=O)c2cc(NC(=O)c3cc(NC(=O)c4cc5ccccc5cn4)c[nH]3)cn2C)cc1C(=O)NCCN1CCOCC1 | 0.5 µg/mL (≈ 0.784 µM) |  |  | MIC (Mus musculus [7]): 2 µg/mL (≈ 3.14 µM); MIC (Mus musculus [8]): 1 µg/mL (≈ 1.57 µM)
Cn1cc(NC(=O)c2ccc(NC(=O)c3cc(NC(=O)c4cc5ccccc5cn4)cn3C)cc2)cc1C(=O)NCCN1CCOCC1 |  |  |  | MIC (Mus musculus [9]): 0.13 µg/mL (≈ 0.2 µM); MIC (Mus musculus [10]): 0.06 µg/mL (≈ 0.0925 µM)
Cn1cc(NC(=O)c2cc(NC(=O)c3cc(NC(=O)c4cc5ccccc5cn4)cs3)cn2C)cc1C(=O)NCCN1CCOCC1 |  |  |  | MIC (Mus musculus [7]): 2 µg/mL (≈ 3.05 µM); MIC (Mus musculus [11]): 0.25 µg/mL (≈ 0.382 µM)
Cc1cnc(C(=O)Nc2cc(C(=O)Nc3ccc(C(=O)Nc4cc(C(=O)NCCN5CCOCC5)n(C)c4)cc3)n(C)c2)cn1 | 2 µg/mL (≈ 3.26 µM) | 0.5 µg/mL (≈ 0.815 µM) | 0.13 µg/mL (≈ 0.212 µM) | 
Cn1cc(NC(=O)c2ccc(NC(=O)c3cc(NC(=O)c4cc5cc6c(cc5s4)OCO6)cn3C)cc2)cc1C(=O)NCCN1CCOCC1 | > 32 µg/mL | 32 µg/mL (≈ 45.9 µM) | 0.5 µg/mL (≈ 0.717 µM) | 
CC(C)n1cc(NC(=O)c2sccc2Cl)cc1C(=O)Nc1cc(C(=O)Nc2cc(C(=O)NCCN3CCOCC3)n(C)c2)n(C)c1 | 4 µg/mL (≈ 5.98 µM) | 4 µg/mL (≈ 5.98 µM) | 2 µg/mL (≈ 2.99 µM) | 
Cn1cc(NC(=O)c2cccc(NC(=O)c3cc(NC(=O)c4sccc4Cl)cn3C)c2)cc1C(=O)NCCN1CCOCC1 | > 32 µg/mL | > 32 µg/mL | > 32 µg/mL | 
Cn1cc(NC(=O)c2cc(NC(=O)c3cc(NC(=O)c4cc5ccccc5cn4)on3)cn2C)cc1C(=O)NCCN1CCOCC1 | 0.5 µg/mL (≈ 0.782 µM) | 0.06 µg/mL (≈ 0.0938 µM) | 0.13 µg/mL (≈ 0.203 µM) | 
Cn1cc(NC(=O)c2sccc2Cl)cc1C(=O)Nc1cc(C(=O)Nc2ccc(C(=O)NCCN3CCOCC3)cc2)n(C)c1 | > 32 µg/mL | > 32 µg/mL | > 32 µg/mL | 
CN[C@H](CC(C)C)C(=O)N[C@H]1C(=O)N[C@@H](CC(N)=O)C(=O)N[C@H]2C(=O)N[C@H]3C(=O)N[C@H](C(=O)N[C@H](C(=O)O)c4cc(O)cc(O)c4-c4cc3ccc4O)[C@H](O)c3ccc(c(Cl)c3)Oc3cc2cc(c3O[C@@H]2O[C@H](CO)[C@@H](O)[C@H](O)[C@H]2O[C@H]2C[C@](C)(N)[C@H](O)[C@H](C)O2)Oc2ccc(cc2Cl)[C@H]1O [VANCOMYCIN] | 1 µg/mL (≈ 0.69 µM) |  | 0.25 µg/mL (≈ 0.173 µM) | 
Cn1cc(NC(=O)c2sccc2Cl)cc1C(=O)Nc1cc(C(=O)Nc2cc(C(=O)NCCN3CCOCC3)n(C)n2)n(C)c1 | > 32 µg/mL | > 32 µg/mL | > 32 µg/mL | 
Cn1cc(NC(=O)c2nc(NC(=O)c3cc(NC(=O)c4sccc4Cl)cn3C)cn2C)cc1C(=O)NCCN1CCOCC1 | > 32 µg/mL | > 32 µg/mL | 16 µg/mL (≈ 24.9 µM) | 
Cn1cc(NC(=O)c2ccc(NC(=O)c3cc(NC(=O)c4cnc5ccccc5c4)cn3C)cc2)cc1C(=O)NCCN1CCOCC1 | > 32 µg/mL | > 32 µg/mL | 2 µg/mL (≈ 3.08 µM) | 
Cn1cc(NC(=O)c2cc(NC(=O)c3ccc(NC(=O)c4sccc4Cl)cc3)cn2C)cc1C(=O)NCCN1CCOCC1 | 16 µg/mL (≈ 25.1 µM) | 32 µg/mL (≈ 50.1 µM) | 32 µg/mL (≈ 50.1 µM) | 
Cn1cc(NC(=O)c2cc(NC(=O)c3cc(NC(=O)c4cc5ccccc5cn4)cn3C)nn2C)cc1C(=O)NCCN1CCOCC1 | 1 µg/mL (≈ 1.53 µM) | 0.5 µg/mL (≈ 0.766 µM) | 0.25 µg/mL (≈ 0.383 µM) | 
Cn1cc(NC(=O)c2cc(NC(=O)c3cc(NC(=O)c4cc5ccccc5cn4)cn3C)cn2C)cc1C(=O)NCCN1CCOCC1 | 0.25 µg/mL (≈ 0.384 µM) | 0.5 µg/mL (≈ 0.767 µM) | 0.06 µg/mL (≈ 0.0921 µM) | 
